Source: patent US8506947B2 (priority 1999, dated 2013)
Read-outs that look alike come from different tables or passages of the source.

Experiments:
hepatic metastases = conditions: cited from earlier work
[1] = test system: subcutaneous tumors (glioma-breast cancer) retrovirally transduced with CYP2B1; conditions: single IP injection of cyclophosphamide; cited from earlier work
melanoma cells = conditions: after antibody-β-lactamase conjugate; cited from earlier work
intracerebral gliomas = conditions: adenovirus carrying HSV-TK intratumorally, IP GCV twice daily for 6 days; cited from earlier work
[2] = test system: Murine colon adenocarcinoma cells (MC38 cells); type: cell-based
sarcoma cells = conditions: gpt gene retrovirally transduced; cited from earlier work
glioma cells = conditions: cited from earlier work
[3] = test system: transduced sarcoma cell line; conditions: cited from earlier work

Cc1ncnc2c1ncn2[C@H]1C[C@H](O)[C@@H](CO)O1 [6-MPDR, 6-methylpurine deoxyriboside]
cure rate (hepatic metastases; every other daily injections of 6-MPDR): 50%
cure rate (hepatic metastases; weekly injections of 6-MPDR): 30%

O=P1(N(CCCl)CCCl)NCCCO1 (stereo not shown) [cyclophosphamide]
complete inhibition of tumors, share of animals [1]: 95%

COc1cccc2c1C(=O)c1c(O)c3c(c(O)c1C2=O)C[C@@](O)(C(=O)CO)C[C@@H]3O[C@H]1C[C@H](NC(=O)OCC2=C(C(=O)O)N3C(=O)[C@@H](NC(=O)Cc4ccccc4)[C@H]3SC2)[C@H](O)[C@H](C)O1 [C-Dox, cephalosporin-doxorubicin]
increase in the sensitivity of cells to the prodrugs (melanoma cells): 4 fold

Nc1nc(O)c2ncn(COC(CO)CO)c2n1 [GCV, Gancyclovir]
complete regressions (intracerebral gliomas): 2
decrease in tumor size compared to controls (intracerebral gliomas): 23 fold

Nc1nc(=O)[nH]cc1F [5-FC, 5-fluorocytosine]
cells killed as a result of the 5-FC exposure [2]: ~100%
effect of the 5-FC exposure on cells [2]: not affected

O=c1[nH]c(=S)c2[nH]cnc2[nH]1 [6-TX, 6-thioxanthine]
increased sensitivity (sarcoma cells): 86 fold
LD50 (glioma cells; glioma cells transduced with gpt): 2.5 µmol/L
sensitivity of untransfected cells (glioma cells; untransfected cells at 50 umol/L): minimally sensitive
treatment mortality due to toxicity of the converted prodrug ([3]; 5 days of treatment with 6-TX): 10%
complete regression, share of the animals ([3]; after 5 days of treatment with 6-TX): 95%
